Data as given in patent publication US9796700B2 (Celgene CAR LLC, priority 2013, dated 2017).
Read-outs that look alike come from different tables or passages of the source.

Key:
Erk1 = Erk1 (Homo sapiens (Human), UniProt P27361); assay: Protein Mass Modification Assay (intact protein MALDI); type: binding
How it was run: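 Percent covalent modification comes from the intact-protein MALDI centroid mass shift, treated versus control, divided by compound MW. Before analysis, human Erk1 was exposed to compound at 10-fold excess over protein for 60 min at room temperature.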

MEK1 activated ERK1 = MEK1 activated ERK1 (Homo sapiens (Human), UniProt P27361); assay: Omnia continuous-read kinase assay for potency against MEK1 activated ERK1; type: biochemical
Sequence of MEK1 activated ERK1 (P27361 whole entry): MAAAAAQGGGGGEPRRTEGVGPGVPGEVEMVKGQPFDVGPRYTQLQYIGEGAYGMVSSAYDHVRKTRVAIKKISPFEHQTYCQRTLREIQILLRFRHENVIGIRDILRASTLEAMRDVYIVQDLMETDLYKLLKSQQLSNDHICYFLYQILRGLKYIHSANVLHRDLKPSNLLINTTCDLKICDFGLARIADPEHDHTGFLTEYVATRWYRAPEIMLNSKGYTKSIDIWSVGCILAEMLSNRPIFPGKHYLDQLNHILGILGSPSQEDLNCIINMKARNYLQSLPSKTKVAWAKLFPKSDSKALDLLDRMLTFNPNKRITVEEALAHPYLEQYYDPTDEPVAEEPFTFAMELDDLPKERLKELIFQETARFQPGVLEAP
Text: Omnia Assay Protocol for Potency Assessment Against MEK1 Activated ERK1:
The protocol below describes continuous-read kinase assays to measure potency of compounds against activated ERK1 enzyme. The mechanics of the assay platform are best described by the vendor (Invitrogen, Carlsbad, Calif.) on their website at the following URL: invitrogen.com/site/us/en/home.html.
Briefly, a 1.25× stock of ERK1 enzyme (14-439-K) from Millipore (Billerica, Mass.), 5×ATP (AS001A) and ST17-Sox conjugated peptide substrate (KNZ1171C) were prepared in 1× kinase reaction buffer consisting of 20 mM Tris, pH 7.5, 5 mM MgCl2, 1 mM EGTA, 5 mM β-glycerophosphate, 5% glycerol (10× stock, KB002A) and 0.2 mM DTT. 10 μL of ATP/ST17-sox peptide substrate mix was combined with 0.5 μL volume of 100% DMSO and serially diluted compounds were prepared in 100% DMSO in a Corning (#3574) 384-well, white, non-binding surface microtiter plate (Corning, N.Y.). Kinase reactions were started with the addition of 40 μL of ERK1 solution and monitored every 71 seconds for 30-240 minutes at λex360/λem485 in a Synergy plate reader from BioTek (Winooski, Vt.). At the conclusion of each assay, progress curves from each well were examined for linear reaction kinetics and fit statistics (R^2, 95% confidence interval, absolute sum of squares). Initial velocity (0 minutes to ˜30+ minutes) from each reaction was determined from the slope of a plot of relative fluorescence units vs time (minutes or seconds) and then plotted against inhibitor concentration to estimate ^AppIC50 from log [Inhibitor] vs Response, Variable Slope model in GraphPad Prism from GraphPad Software (San Diego, Calif.).
[Reagent] used in optimized protocol:
[ERK1]=4 nM, [ATP]=50 μM, [ST17-Sox]=10 μM (ATP ^appKM 48 μM)
The results of this assay show the degree of inhibition of ERK activity, which is a direct measurement of inhibition of ERK activity. Results from this assay are reported in Table A under the column “ERK1 Omnia WT ATP KM IC50 (nM).”

[1] = MEK1 activated ERK1, WT, ATP at KM

Sequence of Erk1 (P27361 whole entry, looked up): as the sequence (P27361 whole entry) above

Compound	ERK1 Mass Mod (%) (Erk1)	IC50 (MEK1 activated ERK1; [1])	IC50 (MEK1 activated ERK1; read-out: ERK1 Omnia WT ATP KM IC50)
C=C(C)S(=O)(=O)Nc1cc(C)ccc1Nc1nc(Nc2cc(C(C)=O)ccc2C)ncc1C(F)(F)F [Compound I-98, N-(2-((2-((5-acetyl-2-methylphenyl)amino)-5-(trifluoromethyl)pyrimidin-4-yl)amino)-5-methylphenyl)prop-1-ene-2-sulfonamide]	E (provided a mass modification of ≧70%)	< 100 nM	–
C=CC(=O)Nc1ccccc1Nc1nc(N[C@H]2CCC[C@@H](C(N)=O)C2)ncc1C(F)(F)F [Compound I-118, (1R,3S)-3-((4-((2-acrylamidophenyl)amino)-5-(trifluoromethyl)pyrimidin-2-yl)amino)cyclohexanecarboxamide]	E (provided a mass modification of ≧70%)	< 100 nM	–
C=CC(=O)Nc1ccccc1Nc1nc(N[C@@H]2CCC[C@H](C(N)=O)C2)ncc1Cl [Compound I-119, (1S,3R)-3-((4-((2-acrylamidophenyl)amino)-5-chloropyrimidin-2-yl)amino)cyclohexanecarboxamide]	E (provided a mass modification of ≧70%)	< 100 nM	–
C=CC(=O)Nc1ccccc1Nc1nc(N[C@H]2CCC[C@@H](C(N)=O)C2)ncc1Cl [Compound I-120, (1R,3S)-3-((4-((2-acrylamidophenyl)amino)-5-chloropyrimidin-2-yl)amino)cyclohexanecarboxamide]	E (provided a mass modification of ≧70%)	< 100 nM	–
C=CC(=O)Nc1ccccc1Nc1nc(N[C@H]2CCCN(C(=O)CO)C2)ncc1Cl [Compound I-123, (S)—N-(2-((5-chloro-2-((1-(2-hydroxyacetyl)piperidin-3-yl)amino)pyrimidin-4-yl)amino)phenyl)acrylamide]	E (provided a mass modification of ≧70%)	< 100 nM	–
C=CC(=O)Nc1ccccc1Nc1nc(NC2CCN(C=O)CC2)ncc1Cl [Compound I-124, N-(2-((5-chloro-2-((1-formylpiperidin-4-yl)amino)pyrimidin-4-yl)amino)phenyl) acrylamide]	E (provided a mass modification of ≧70%)	< 100 nM	–
C=CC(=O)Nc1ccccc1Nc1nc(N[C@H]2CCCN(S(C)(=O)=O)C2)ncc1Cl [Compound I-125, (S)—N-(2-((5-chloro-2-((1-(methylsulfonyl)piperidin-3-yl)amino)pyrimidin-4-yl)amino)phenyl)acrylamide]	E (provided a mass modification of ≧70%)	< 100 nM	–
CCOCCC(=O)Nc1ccccc1Nc1nc(Nc2cc(C(N)=O)ccc2C)ncc1Cl [Compound I-130]	G (proived a mass modification ≦30%)	> 1000 nM	–
C=CC(=O)Nc1ccccc1Nc1nc(N[C@H]2CCCN(C(=O)CC)C2)ncc1Cl [Compound I-131, (S)—N-(2-((5-chloro-2-((1-propionylpiperidin-3-yl)amino)pyrimidin-4-yl)amino)phenyl)acrylamide]	E (provided a mass modification of ≧70%)	< 100 nM	–
C=CC(=O)Nc1ccccc1Nc1nc(N[C@H]2CCCN(C(=O)OC(C)(C)C)C2)ncc1Cl [Compound I-132, (S)-tert-butyl 3-((4-((2-acrylamidophenyl)amino)-5-chloropyrimidin-2-yl)amino) piperidine-1-carboxylate]	E (provided a mass modification of ≧70%)	> 1000 nM	–
C=CC(=O)Nc1ccccc1Nc1nc(N[C@H]2CCCN(C(=O)[C@@H](C)O)C2)ncc1Cl [Compound I-134, N-(2-((5-chloro-2-(((S)-1-((R)-2-hydroxypropanoyl)piperidin-3-yl)amino)pyrimidin-4-yl)amino)phenyl)acrylamide]	E (provided a mass modification of ≧70%)	< 100 nM	–
C=CC(=O)Nc1ccccc1Nc1nc(N[C@H]2CCCN(C(=O)C3CC3)C2)ncc1Cl [Compound I-136, (S)—N-(2-((5-chloro-2-((1-(cyclopropanecarbonyl)piperidin-3-yl)amino)pyrimidin-4-yl)amino)phenyl)acrylamide]	E (provided a mass modification of ≧70%)	< 100 nM	–
C=CC(=O)Nc1ccccc1Nc1nc(N[C@H]2CCCN(C(=O)C(C)C)C2)ncc1Cl [Compound I-137, (S)—N-(2-((5-chloro-2-((1-isobutyrylpiperidin-3-yl)amino)pyrimidin-4-yl)amino)phenyl)acrylamide]	E (provided a mass modification of ≧70%)	< 100 nM	–
C=CC(=O)Nc1cc(C)ccc1Nc1nc(N[C@H]2CCCN(C(C)=O)C2)ncc1Cl [Compound I-139, (S)—N-(2-((2-((1-acetylpiperidin-3-yl)amino)-5-chloropyrimidin-4-yl)amino)-5-methylphenyl)acrylamide]	E (key: E: provided a mass modification of ≧70%; F: provided a mass modification of 31-69%; G: proived a mass modification ≦30%)	–	< 100 nM
C=CC(=O)Nc1ccccc1Nc1nc(Nc2ccc(NC(C)=O)cc2C(F)(F)F)ncc1Cl [Compound I-150, N-(2-((2-((4-acetamido-2-(trifluoromethyl)phenyl)amino)-5-chloropyrimidin-4-yl)amino)phenyl)acrylamide]	E (provided a mass modification of ≧70%)	> 1000 nM	–
C=CC(=O)Nc1cc(OC)ccc1Nc1nc(Nc2ccc(N3CCN(C(=O)OC(C)(C)C)CC3)cc2OC)ncc1Cl [Compound I-151, tert-butyl 4-(4-((4-((2-acrylamido-4-methoxyphenyl)amino)-5-chloropyrimidin-2-yl)amino)-3-methoxyphenyl)piperazine-1-carboxylate]	F (provided a mass modification of 31-69%)	> 1000 nM	–
C=CC(=O)Nc1ccccc1Nc1nc(Nc2ccc(N3CCN(C(C)=O)CC3)cc2OC)ncc1F [Compound I-153, N-(2-((2-((4-(4-acetylpiperazin-1-yl)-2-methoxyphenyl)amino)-5-fluoropyrimidin-4-yl)amino)phenyl)acrylamide]	F (provided a mass modification of 31-69%)	> 1000 nM	–
C=CC(=O)Nc1ccccc1Nc1ccnc(Nc2ccc(N3CCN(C(C)=O)CC3)cc2OC)n1 [Compound I-154, N-(2-((2-((4-(4-acetylpiperazin-1-yl)-2-methoxyphenyl)amino)pyrimidin-4-yl)amino)phenyl)acrylamide]	G (proived a mass modification ≦30%)	> 1000 nM	–
C=CC(=O)Nc1cc(OC)ccc1Nc1nc(Nc2ccc(-n3ccnc3)cc2C#N)ncc1Cl [Compound I-157, N-(2-((5-chloro-2-((2-cyano-4-(1H-imidazol-1-yl)phenyl)amino)pyrimidin-4-yl)amino)-5-methoxyphenyl)acrylamide]	F (provided a mass modification of 31-69%)	> 1000 nM	–
C=CC(=O)Nc1cc(OC)ccc1Nc1nc(Nc2ccc(N3CCC[C@H]3CO)cc2C(F)(F)F)ncc1Cl [Compound I-158, (S)—N-(2-((5-chloro-2-((4-(2-(hydroxymethyl)pyrrolidin-1-yl)-2-(trifluoromethyl)phenyl)amino)pyrimidin-4-yl)amino)-5-methoxyphenyl)acrylamide]	F (provided a mass modification of 31-69%)	> 1000 nM	–
C=CC(=O)Nc1cc(OC)ccc1Nc1nc(Nc2ccc(N3CCC[C@H]3CO)cc2OC)ncc1Cl [Compound I-159, (S)—N-(2-((5-chloro-2-((4-(2-(hydroxymethyl)pyrrolidin-1-yl)-2-methoxyphenyl)amino)pyrimidin-4-yl)amino)-5-methoxyphenyl)acrylamide]	F (provided a mass modification of 31-69%)	> 1000 nM	–
C=CC(=O)Nc1ccccc1Nc1nc(Nc2ccc(N3CCC[C@H]3CO)cc2C#N)ncc1Cl [Compound I-160, (S)—N-(2-((5-chloro-2-((2-cyano-4-(2-(hydroxymethyl)pyrrolidin-1-yl)phenyl)amino)pyrimidin-4-yl)amino)phenyl)acrylamide]	G (proived a mass modification ≦30%)	> 1000 nM	–
C=CC(=O)Nc1cc(OC)ccc1Nc1nc(Nc2ccc(N3CCNCC3)cc2C#N)ncc1Cl [Compound I-161, N-(2-((5-chloro-2-((2-cyano-4-(piperazin-1-yl)phenyl)amino)pyrimidin-4-yl)amino)-5-methoxyphenyl)acrylamide]	G (proived a mass modification ≦30%)	> 1000 nM	–
